The source of these data is publication PMC7904806, “A phase I dose-finding, pharmacokinetics and genotyping study of olaparib and lurbinectedin in patients with advanced solid tumors” (Scientific Reports, 2021).

A short description of data set [1]: Pharmacokinetics in patients, cycle 1 (noncompartmental analysis). The class given is in vivo, human. Conditions: for Drug–drug interactions (DDI): combination of lurbinectedin and olaparib. The source says:
Blood samples for pharmacokinetic (PK) analyses were collected during cycle 1, with a schedule of ten samples (Supplementary Table 5).
Safety and efficacy population comprised all patients who received at least one dose of the study treatment. Continuous variables were presented with summary statistics and qualitative variables with the absolute and relative frequencies. In those cases where it was necessary to ensure the normality of the continuous parameters, log transformation (or other suitable transformation) was performed. Analysis of Variance (ANOVA) was used for exploratory group comparisons. If Gaussian distribution assumptions (Shapiro–Wilks test) were not met, equivalent nonparametric methods as the Kruskal–Wallis, were performed. Chi-squared or Fisher exact test were used for qualitative parameters. To explore the change in value of a variable, between baseline and week 12 or any other time point, a t-test for paired data or the Wilcoxon signed-rank test was performed, based on the distribution followed by the corresponding variable. All statistical analyses were performed using IBM SPSS Statistics 22 and R v.3.4.3. PK analysis was performed according to the NCA. […] The dose-exposure relationships for Cmax and AUC for lurbinectedin and AUC 0–6 for olaparib will be evaluated and any potential PK interaction between olaparib and lurbinectedin were also explored. The population pharmacokinetics (PopPK) models for each drug was used to detect potential drug–drug interactions based on single agent PopPK models. The potential influence on selected PK parameters of selected demographic and clinical dichotomous variables (gender, laboratory test results above/below selected cutoff values, etc.) was evaluated by Student’s test Mann–Whitney’s U test as appropriate. For multinomial variables, analysis of variance was used. For selected continuous demographic and clinical variables, relationships with selected PK parameters were graphically explored and assessed using correlation and regression methods.
Supplementary Table 5. Sampling schedule for the determination of lurbinectedin and
Sample Time relative to the Sampling times Sampling times PK
number lurbinectedin for lurbinectedin for olaparib window
#1 1 0 min Pre-infusion Pre-dose -10 min to SOI
#2 1 0.5 h 30 min before EOI 30 min after 1st administration ±2 min
#3 1 0.92 h 5 min before EOI 55 min after 1st administration ±2 min
#4 1 1.5 h 30 min after EOI 1.5 h after 1st administration ±5 min
#5 1 3 h 2 h after EOI 3 h after 1st administration ±10 min
#6 1 4.5 h 3.5 h after EOI 4.5 h after 1st administration ±10 min
#7 1 6 h 5 h after EOI 6 h after 1st administration ±10 min
2 24 h after 1st administration
#8 24 h 23 h after EOI (immediately before 3rd olaparib administration) ±2 h
4 72 h after 1st administration
#9 † 72 h 71 h after EOI (immediately before 7th olaparib administration) +24 / -2 h […]

For data set [2], the system named is ovarian cancer cell lines. As to the kind of experiment: MTT cytotoxicity assay, panel of ovarian cancer cell lines. In kind it is cell-based. Here is the method:
(§1) The following Ovarian Cancer Cell lines were analyzed: TOV112, SKOV-3, OVCAR-3, PEO1, PEO6, PEO4, A2780 and A2780-Cis (an A2780 variant made resistant to platinum), representing the main different molecular subtypes of ovarian cancer (Supplementary Table 6). These cell lines were maintained at 37 °C in 5% CO2 in RPMI‐1640 medium (Sigma‐Aldrich Co.) and DMEM medium (Sigma‐Aldrich Co.), all supplemented with 10% heat‐inactivated FBS (Sigma‐Aldrich Co.). To verify the genetic profile of the cell lines, a characterization of microsatellite markers was carried out (AmpFlSTR Identifiler PCR Amplification Kit, AppliedBiosystem).
(§2) For the pharmacological characterization of the different cell lines, dose–response curves were obtained for lurbinectedin (range between 25 and 0.0343 μM and 100–1.5625 μM dilution factor 3 and 2, respectively) and olaparib (range between […]). […] Cytotoxicity assay was assessed performing six technical replicates and three biological replicates per each curve point.
Before starting cytotoxicity assays to characterize the chemosensitivity of cell lines to study drugs, different time of exposures and doses were tested in order to establish the most suitable working conditions. […] Regarding olaparib, exposure times were established at 72, 96 and 120 h, measuring absorbance directly after treatment exposure (Supplementary Fig. 10). […]

The next data set deals with A2780. As to the kind of experiment: MTT cytotoxicity assay, A2780. Conditions: A2780, lowest IC50 of the panel. The class given is cell-based. Here is the method: as §1, §2
(§3) For MTT assay, cells were plated and after 24 h of incubation, treated with the drug (lurbinectedin/olaparib) either as a single agent or with both agents simultaneously. […] Finally, the absorbance was measured at 570 nm.
Background: Formazan colour is commonly taken as a measure of viable cells.

The conditions of data set [3]: single-agent, cited from earlier work.
For data set [4] the following is noted: cited from earlier work.
In a further data set the test system is A2780 CIS. As to the kind of experiment: MTT cytotoxicity assay, A2780 CIS. Conditions: A2780cis, lowest IC50 of the panel. In kind it is cell-based. Here is the method:
as §1, §2, §3

pIC50: −log10 of the molar value. Where “and” joins values, the source holds several entries; their conditions need not be identical. Identical values can stand only once. Entries after “also recorded” stand apart in the source; their conditions may differ. Like-named read-outs stand apart in the source and are kept apart here. Where only a bound is given, the exact number is not on record here.

In the case of `COc1ccc2[nH]c3c(c2c1)CCN[C@]31CS[C@@H]2c3c(OC(C)=O)c(C)c4c(c3[C@H](COC1=O)N1[C@@H]2[C@H]2c3c(cc(C)c(OC)c3O)C[C@@H]([C@@H]1O)N2C)OCO4` [lurbinectedin], the “Drug–drug interactions (DDI)” value in data set [1] is on record as “did not observe any potential drug–drug interactions; also recorded: no drug interactions”. Also, in data set [1] (highest olaparib DL (250 mg BID)), the “Mean lurbinectedin CL” value was 12 L/h. Moreover, the “Lurbinectedin CL variability” value in data set [1] (lurbinectedin 1 mg/m^2) is on record as 92%; in data set [1] (lurbinectedin 1.5 mg/m^2) it was 36%; in data set [1] (lurbinectedin 2 mg/m^2) it was 52%. Also, the “Lurbinectedin CL, one patient with high CL” value in data set [1] (lurbinectedin 1 mg/m^2) amounted to 37 L/h. Besides, in data set [1] (olaparib 200 and 250 mg BID, lurbinectedin 1.5 and 2 mg/m^2), the “Lurbinectedin CL variabilities” value is on record as around 36%. Besides, the “Mean lurbinectedin clearance (CL)” value in data set [1] (three lurbinectedin DLs, with olaparib) is reported as around 12 L/h. Further, the “IC50 reached after 1 h exposure” value in data set [2] (1 h exposure, viability at 72 h) is “not enough to reach the IC50 value”. Further, the pIC50 in data set [2] (all cell lines except OVCAR3, 72 h exposure) is above 9.00; in the data set with A2780 it was 9.34. Further, the entries for the “Grade 3–4 neutropenia” value in data set [3] (dose adjusted to body surface area ref 23) and in data set [3] (flat dose ref 21) were 57% and “up to 85%”, respectively. For the same compound, the “Mean lurbinectedin CL as single-agent” value in data set [4] (single-agent ref 25) is 12 L/h.
In the case of `O=C(c1cc(Cc2n[nH]c(=O)c3ccccc23)ccc1F)N1CCN(C(=O)C2CC2)CC1` [olaparib], the “Olaparib PK parameters by lurbinectedin DL” value in data set [1] (NCA) is given as “did not show differences”. Also, the “Drug–drug interactions (DDI)” value in data set [1] is “no drug interactions”. Further, the clearance is 50 mL/min in data set [1] (human, blood, oral, olaparib 100 mg, read-out: Olaparib CL (converted)); 100 to 167 mL/min in data set [1] (human, blood, oral, olaparib DLs above 100 mg, read-out: Olaparib CL (converted)); 117 mL/min in data set [1] (human, in vivo, oral, this trial, read-out: Mean olaparib total body clearance (converted)). In addition, the half-life in data set [1] (human, in vivo, oral, this trial, NCA samples until 6 h, read-out: Olaparib terminal half-life (converted)) is 3 h. In addition, the negative-log IC50 (pIC50) in the data set with A2780 CIS is 5.54. In addition, the “Olaparib total body clearance” value in data set [4] (literature ref 31) is 5.1 L/h and 8.6 L/h.

For orientation: pIC50 means the IC50 on a negative log10 scale, so that one unit is a factor of ten. Read a low pIC50 as a high IC50. As a reminder, the half-life is how long it takes for the measured level to halve.
